# Measurements: patent US20230391765A1, “HETEROBIFUNCTIONAL COMPOUNDS AS DEGRADERS OF ENL” (ICAHN SCHOOL OF MEDICINE AT MOUNT SINAI, priority 2020, published 2023)
# Assays:
# Assay type in all cases: cell-based
# [1] = target: T1, ENL (Homo sapiens, UniProt Q03111); experiment: Western blot of ENL protein levels in MV4; 11 cells; details: 11 cells; for effect of proteasome inhibitor MG132 on the ENL degradation induced by the degrader: 1 μM degrader with or without 1 μM MG132 for 6 h; for ENL protein level after long treatment: 1 μM for 48 and 72 h
# T1 construct: Cells were lysed and expression of endogenous ENL was assessed by Western blot analysis; host or cells: MV4;11
# T1 sequence (Q03111 1-559): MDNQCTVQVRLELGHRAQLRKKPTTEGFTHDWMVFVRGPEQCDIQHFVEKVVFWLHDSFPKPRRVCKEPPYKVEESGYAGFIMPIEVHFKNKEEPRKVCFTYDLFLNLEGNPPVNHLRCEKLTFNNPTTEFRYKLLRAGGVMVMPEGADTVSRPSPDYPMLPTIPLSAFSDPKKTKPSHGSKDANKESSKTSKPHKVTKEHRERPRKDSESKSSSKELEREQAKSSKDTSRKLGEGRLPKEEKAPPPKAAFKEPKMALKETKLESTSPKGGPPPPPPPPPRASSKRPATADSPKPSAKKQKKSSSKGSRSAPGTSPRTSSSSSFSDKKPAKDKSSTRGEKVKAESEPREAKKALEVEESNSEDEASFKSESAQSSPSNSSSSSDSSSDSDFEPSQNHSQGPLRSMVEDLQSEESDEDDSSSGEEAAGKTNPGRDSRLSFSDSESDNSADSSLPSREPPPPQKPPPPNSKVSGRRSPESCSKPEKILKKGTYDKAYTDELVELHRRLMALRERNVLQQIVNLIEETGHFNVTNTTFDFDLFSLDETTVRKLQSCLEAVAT
# Procedure: MV4; 11 cells were treated with DMSO or the indicated compounds (the same panel of ENL degraders as shown in FIG. 4) at 1 μM and 10 μM for 24 h. Cells were lysed and expression of ENL was assessed by Western blot analysis.
# DMSO treated cells were used as control.
# MV4; 11 cells were treated with LQ076-122, or LQ081-107 at 0.3, 1, 3, 10, and 30 μM for 24 h. DMSO treated cells were used as control. Cells were lysed and expression of ENL and GAS41 was assessed by Western analysis.
# MV4; 11 cells were treated with DMSO or the indicated compounds at 1 μM and 10 μM for 6 h. Cells were lysed and expression of endogenous ENL was assessed by Western blot analysis.
# Cells were treated with 1 μM of ENL degrader with or without 1 μM proteasome inhibitor MG132 for 6 h.
# (§1) ENL degraders were dissolved in DMSO. DMSO with no degraders was used as the control. 1×10^6 leukemia cells were seeded in 5 mL medium. For prescreening of compounds, each test compound was added to the medium at 1 μM and 10 μM. Cells were collected after 24 h treatment. For the concentration-dependent treatment, candidate compounds were added to the medium at a series of concentration as indicated in figures. Cells were collected after 24 h treatment. For the time-course treatment, candidate compounds were added to the medium at a final concentration of 4 μM (MV4; 11 cells) or 8 μM (MOLM13 cells). Cells were collected at the indicated timepoints (in hours: 12, 16, 20, 24 and 36 h).
# (§2) After ENL degrader treatment, cells were collected, lysed, and total cell lysates were used for Western blot. The following primary antibodies were used: ENL (Cell Signaling Technology), GAS41 (Santa Cruz), GAPDH (Santa Cruz), β-actin (Sigma). Blots were detected using HRP-conjugated secondary antibodies.
# [2] = target: T1, ENL; experiment: Western blot of ENL protein levels in Jurkat cells; details: for ENL protein level after long treatment: 1 μM for 48 and 72 h
# From the text: […] DMSO was used as negative control.
# as §2
# [3] = tested on: ENL-dependent MV4; 11 cells; experiment: Cell viability (CellTiter-Glo), MV4; 11 cells; details: 11 cells, 1.25, 2.5, 5 and 10 μM for 72 h
# Procedure: MV4; 11 (FIG. 13A), MOLM13 (FIG. 13B) and Jurkat (FIG. 13C) cells were seeded at 2×10^5 cells/mL density and treated with DMSO or indicated compounds 0.5, 1, 2 and 4 μM for 72 h. Cell viability was measured using CellTiter-Glo reagent (Promega) and relative cell viability was calculated by normalization to DMSO samples.
# (§3) ENL-dependent MV4; 11 cells were seeded at 2×10^5 cells/mL density and treated with DMSO or the indicated compounds at 0, 1.25, 2.5, 5 and 10 μM for 72 h. Cell viability was measured using CellTiter-Glo reagent (Promega) and relative cell viability was calculated by normalization to DMSO samples.
# as §3, with “11 and ENL-independent Jurkat” for “11”, “or” for “or the”, “10 nM, 100 nM, 1 μM” for “0, 1.25, 2.5, 5”, “3 days (A) or 6 days (B).” for “72 h.”
# MV4; 11 or MOLM13 cells were seeded at 0.2×10^6 cells/mL density. Cells were treated with DMSO or ENL degraders at indicated concentrations. Each treatment was done in triplicates. After 72 h treatment, 100 μL of cell suspension from each treatment was mixed with 25 μL of CellTiter-Glo reagent (Promega) and incubated for 10 min before the luminescence signals were detected on a plate reader.
# [4] = target: T1, ENL; experiment: Western blot of ENL protein levels in MOLM13 cells; details: for ENL protein level after long treatment: 1 μM for 48 and 72 h
# Procedure: MOLM13 cells were treated with LQ076-122 or LQ081-108 at 0, 0.25, 0.5, 1, 1.5, 2, 2.5, 3, 4 and 8 μM for 24 h.
# MOLM13 cells were treated with DMSO or 8 μM of LQ076-122 for 12, 16, 20, 24 and 36 h.
# MV4; 11, MOLM13 and Jurkat cells were treated with LQ108-69, LQ108-71, LQ108-72, LQ126-62 and LQ126-63 at 0, 1 nM, 10 nM, 100 nM, 1 μM, and 10 μM doses for 6 h. DMSO was used as negative control.
# as §1, §2
smiles,measurement,setting,value
"Cn1ncc2cc(C(=O)Nc3ccc4[nH]c(CN5CCC(CCNC(=O)CCCCCCNc6cccc7c6C(=O)N(C6CCC(=O)NC6=O)C7=O)C5)nc4c3)ccc21 (stereo not shown) [LQ076-98, N-(2-((3-(2-(7-((2-(2,6-dioxopiperidin-3-yl)-1,3-dioxoisoindolin-4-yl)amino)heptanamido)ethyl)pyrrolidin-1-yl)methyl)-1H-benzo[d]imidazol-5-yl)-1-methyl-1H-indazole-5-carboxamide]",reduction of ENL protein levels,"[1]; 10 μM, 24 h",effective in reducing ENL protein levels
"Cn1ncc2cc(C(=O)Nc3ccc4[nH]c(CN5CCC(CCNC(=O)CCCCCCCNc6cccc7c6C(=O)N(C6CCC(=O)NC6=O)C7=O)C5)nc4c3)ccc21 (stereo not shown) [LQ076-99, N-(2-((3-(2-(8-((2-(2,6-dioxopiperidin-3-yl)-1,3-dioxoisoindolin-4-yl)amino)octanamido)ethyl)pyrrolidin-1-yl)methyl)-1H-benzo[d]imidazol-5-yl)-1-methyl-1H-indazole-5-carboxamide]",reduction of ENL protein levels,"[1]; 10 μM, 24 h",effective in reducing ENL protein levels
"Cc1ncsc1-c1ccc(CNC(=O)[C@@H]2C[C@@H](O)CN2C(=O)[C@@H](NC(=O)CCCCCCCCNC(=O)c2ccc(C(=O)Nc3ccc4[nH]c(CN5CCC[C@@H]5C)nc4c3)cc2)C(C)(C)C)cc1 [LQ076-120, N^1-(9-(((S)-1-((2S,4R)-4-hydroxy-2-((4-(4-methylthiazol-5-y)benzyl)carbamoyl)pyrrolidin-1-yl)-3,3-dimethyl-1-oxobutan-2-yl)amino)-9-oxononyl)-N^4-(2-(((S)-2-methylpyrrolidin-1-yl)methyl)-1H-benzo[d]imidazol-5-yl)terephthalamide]",reduction of ENL protein levels,"[1]; 10 μM, 24 h",effective in reducing ENL protein levels
"Cc1ncsc1-c1ccc(CNC(=O)[C@@H]2C[C@@H](O)CN2C(=O)[C@@H](NC(=O)CCCCCCCCCNC(=O)c2ccc(C(=O)Nc3ccc4[nH]c(CN5CCC[C@@H]5C)nc4c3)cc2)C(C)(C)C)cc1 [LQ076-121, N^1-(10-(((S)-1-((2S,4R)-4-hydroxy-2-((4-(4-methylthiazol-5-yl)benzyl)carbamoyl)pyrrolidin-1-yl)-3,3-dimethyl-1-oxobutan-2-yl)amino)-10-oxodecyl)-N^4-(2-(((S)-2-methylpyrrolidin-1-yl)methyl)-1H-benzo[d]imidazol-5-yl)terephthalamide]",reduction of ENL protein levels,"[1]; 10 μM, 24 h",effective in reducing ENL protein levels
"C[C@H]1CCCN1Cc1nc2cc(NC(=O)c3ccc(C(=O)NCCCCCCCCNc4cccc5c4C(=O)N(C4CCC(=O)NC4=O)C5=O)cc3)ccc2[nH]1 (stereo partly drawn) [LQ076-134, N^1-(8-((2-(2,6-dioxopiperidin-3-yl)-1,3-dioxoisoindolin-4-yl)amino)octyl)-N^4-(2-(((S)-2-methylpyrrolidin-1-yl)methyl)-1H-benzo[d]imidazol-5-yl)terephthalamide]",reduction of ENL protein levels,"[1]; 10 μM, 24 h",effective in reducing ENL protein levels
"Cc1ncsc1-c1ccc(CNC(=O)[C@@H]2C[C@@H](O)CN2C(=O)[C@@H](NC(=O)C2(F)CC2)C(C)(C)C)c(OCC(=O)NCCCCCCCNC(=O)c2ccc3c(c2)[C@H](NC(=O)c2cc(-c4ccc(C(=O)N(C)C)c(O)c4)on2)CC3)c1 [LQ108-63, 5-(4-(dimethylcarbamoyl)-3-hydroxyphenyl)-N-((R)-6-((7-(2-(2-(((2S,4R)-1-((S)-2-(1-fluorocyclopropane-1-carboxamido)-3,3-dimethylbutanoyl)-4-hydroxypyrrolidine-2-carboxamido)methyl)-5-(4-methylthiazol-5-yl)phenoxy)acetamido)heptyl)carbamoyl)-2,3-dihydro-1H-inden-1-yl)isoxazole-3-carboxamide]",effect of proteasome inhibitor MG132 on the ENL degradation induced by the degrader,[1],partially blocks the ENL degradation
"Cc1ncsc1-c1ccc([C@H](CC(=O)NCCCCCCNC(=O)c2ccc3c(c2)[C@H](NC(=O)c2cc(-c4ccc(C(=O)N(C)C)c(O)c4)on2)CC3)NC(=O)[C@@H]2C[C@@H](O)CN2C(=O)[C@@H](NC(=O)C2(F)CC2)C(C)(C)C)cc1 [LQ108-69, 5-(4-(dimethylcarbamoyl)-3-hydroxyphenyl)-N—((R)-6-((6-((S)-3-((2S,4R)-1-((S)-2-(1-fluorocyclopropane-1-carboxamido)-3,3-dimethylbutanoyl)-4-hydroxypyrrolidine-2-carboxamido)-3-(4-(4-methylthiazol-5-yl)phenyl)propanamido)hexyl)carbamoyl)-2,3-dihydro-1H-inden-1-yl)isoxazole-3-carboxamide]",reduction of ENL protein levels,[1]; 1 nM to 10 μM for 6 h,reduced ENL protein levels in a concentration-dependent manner
same,effect of proteasome inhibitor MG132 on the ENL degradation induced by the degrader,[1],partially blocks the ENL degradation
same,ENL protein level after long treatment,[1],maintained the ENL protein at low levels
same,reduction of ENL protein levels,[2]; 1 nM to 10 μM for 6 h,reduced ENL protein levels in a concentration-dependent manner
same,ENL protein level after long treatment,[2],maintained the ENL protein at low levels
same,suppression of cell growth (relative cell viability),[3],significantly suppressed MV4; 11 cell growth at low micromolar concentration
same,reduction of ENL protein levels,[4]; 1 nM to 10 μM for 6 h,reduced ENL protein levels in a concentration-dependent manner
same,ENL protein level after long treatment,[4],maintained the ENL protein at low levels
"Cc1ncsc1-c1ccc([C@H](CC(=O)NCCCCCCCNC(=O)c2ccc3c(c2)[C@H](NC(=O)c2cc(-c4ccc(C(=O)N(C)C)c(O)c4)on2)CC3)NC(=O)[C@@H]2C[C@@H](O)CN2C(=O)[C@@H](NC(=O)C2(F)CC2)C(C)(C)C)cc1 [LQ108-70, 5-(4-(dimethylcarbamoyl)-3-hydroxyphenyl)-N—((R)-6-((7-((S)-3-((2S,4R)-1-((S)-2-(1-fluorocyclopropane-1-carboxamido)-3,3-dimethylbutanoyl)-4-hydroxypyrrolidine-2-carboxamido)-3-(4-(4-methylthiazol-5-yl)phenyl)propanamido)heptyl)carbamoyl)-2,3-dihydro-1H-inden-1-yl)isoxazole-3-carboxamide]",effect of proteasome inhibitor MG132 on the ENL degradation induced by the degrader,[1],partially blocks the ENL degradation
same,ENL protein level after long treatment,[1],maintained the ENL protein at low levels
same,ENL protein level after long treatment,[2],maintained the ENL protein at low levels
same,suppression of cell growth (relative cell viability),[3],significantly suppressed MV4; 11 cell growth at low micromolar concentration
same,ENL protein level after long treatment,[4],maintained the ENL protein at low levels
